Data taken from a compilation of properties of binary mixtures (doi:10.1016/j.molliq.2018.02.064).

Assay: xn = mol fraction of the nth substance listed
Conditions: 100 kPa

CCCC[n+]1ccn(C)c1.O=S(=O)([N-]S(=O)(=O)C(F)(F)F)C(F)(F)F + CCO
viscosity [mPa·s]
Conditions | x1 = 0.2129 | x1 = 0.2688 | x1 = 0.4215 | x1 = 0.4606 | x1 = 0.5784 | x1 = 0.6609 | x1 = 0.747 | x1 = 0.8264 | x1 = 1
293 K | 5.22 | 6.47 | 12.72 | 13.9 | – | 24.9 | 32.4 | 40.9 | 63.5
293.3 K | 5.19 | 6.42 | 12.59 | – | 20.5 | 24.6 | – | 40.4 | 62.7
293.61 K | 5.15 | – | 12.47 | 13.7 | 20.4 | 24.4 | 31.8 | 39.9 | –
293.91 K | – | 6.33 | 12.34 | – | 20.2 | – | 31.4 | 39.4 | 61
294.21 K | 5.08 | 6.28 | – | 13.42 | 20 | – | 31.1 | 38.9 | –
294.52 K | 5.05 | 6.24 | 12.1 | 13.3 | 19.8 | 23.7 | – | – | –
294.82 K | 5.01 | 6.19 | – | 13.18 | 19.6 | 23.5 | 30.5 | 38 | –
295.12 K | 4.98 | 6.15 | – | 13.06 | 19.4 | 23.3 | – | 37.6 | 57.8
295.42 K | – | – | 11.75 | – | 19.2 | 23.1 | 29.9 | 37.1 | 57
295.73 K | 4.91 | 6.06 | 11.64 | 12.82 | 19 | 22.8 | 29.5 | – | 56.3
296.03 K | 4.87 | 6.02 | 11.52 | 12.7 | 18.9 | 22.6 | 29.2 | 36.2 | 55.6
296.33 K | 4.84 | 5.98 | 11.41 | 12.59 | 18.7 | 22.4 | 28.9 | 35.8 | 54.8
296.64 K | 4.81 | – | 11.31 | – | 18.5 | 22.2 | 28.6 | 35.4 | –
296.94 K | 4.77 | 5.89 | 11.2 | – | 18.34 | 22 | – | 35 | 53.4
297.24 K | 4.74 | – | – | 12.25 | – | 21.8 | – | 34.5 | 52.7
297.55 K | 4.71 | 5.81 | 10.99 | 12.14 | 18 | 21.6 | 27.8 | – | 52.1
297.85 K | 4.68 | 5.77 | 10.88 | 12.04 | 17.83 | 21.4 | 27.5 | 33.7 | –
298.15 K | – | – | 10.78 | 11.93 | 17.67 | 21.2 | 27.2 | 33.3 | 50.8
298.45 K | 4.61 | 5.69 | 10.68 | 11.82 | 17.5 | – | – | 33 | 50.1
298.76 K | 4.58 | 5.65 | – | 11.72 | 17.34 | 20.8 | 26.7 | – | 49.5
299.06 K | – | 5.61 | 10.49 | 11.62 | – | – | 26.4 | 32.2 | 48.9
299.36 K | 4.52 | 5.57 | 10.39 | 11.52 | 17.03 | 20.4 | 26.2 | 31.8 | 48.3
299.67 K | 4.48 | 5.53 | 10.29 | – | 16.87 | 20.2 | 25.9 | 31.5 | 47.7
299.97 K | – | 5.49 | 10.2 | 11.31 | – | 20 | 25.6 | 31.1 | 47.1
300.27 K | – | 5.45 | – | 11.22 | 16.56 | 19.9 | – | – | 46.5
300.58 K | 4.39 | 5.41 | – | 11.12 | 16.41 | 19.7 | 25.1 | 30.4 | 45.9
300.88 K | 4.36 | – | – | 11.02 | 16.26 | 19.5 | 24.9 | 30.1 | 45.4
301.18 K | 4.33 | – | 9.84 | 10.93 | 16.11 | 19.3 | 24.6 | 29.7 | 44.8
301.48 K | – | 5.3 | 9.75 | 10.83 | 15.97 | 19.1 | 24.4 | 29.4 | 44.3
301.79 K | 4.27 | 5.26 | 9.66 | 10.74 | 15.82 | 19 | 24.2 | 29 | 43.7
302.09 K | 4.24 | 5.22 | 9.57 | 10.65 | 15.68 | 18.8 | 23.9 | 28.7 | 43.2
302.39 K | 4.21 | 5.19 | 9.49 | – | 15.54 | 18.6 | 23.7 | 28.4 | 42.7
302.7 K | – | – | 9.41 | 10.47 | 15.4 | 18.5 | – | – | 42.2
303 K | 4.15 | 5.11 | 9.32 | – | 15.26 | 18.3 | – | 27.8 | 41.7
303.3 K | 4.13 | – | 9.24 | 10.29 | 15.12 | 18.1 | 23 | 27.4 | 41.2
303.61 K | 4.1 | 5.04 | 9.16 | 10.2 | 14.99 | 18 | 22.8 | 27.1 | 40.7
303.91 K | 4.07 | 5 | 9.08 | 10.12 | 14.85 | 17.8 | 22.6 | – | 40.2
304.21 K | 4.04 | 4.97 | 9 | 10.03 | 14.72 | 17.6 | 22.3 | 26.5 | 39.8
304.52 K | 4.01 | 4.93 | 8.92 | – | – | 17.5 | 22.1 | 26.2 | –
304.82 K | 3.98 | – | – | 9.87 | 14.46 | 17.3 | – | 26 | 38.9
305.12 K | 3.96 | 4.86 | 8.77 | 9.78 | 14.33 | 17.1 | 21.7 | 25.7 | –
305.42 K | 3.93 | 4.83 | 8.7 | 9.7 | 14.2 | 16.99 | 21.5 | 25.4 | 38
305.73 K | 3.9 | 4.8 | 8.62 | 9.62 | 14.07 | 16.84 | 21.3 | 25.1 | 37.5
306.03 K | 3.88 | – | 8.55 | 9.54 | 13.95 | 16.69 | 21.1 | 24.8 | 37.1
306.33 K | 3.85 | 4.73 | 8.48 | 9.46 | – | 16.54 | 20.9 | – | 36.7
306.64 K | 3.82 | – | 8.41 | 9.39 | 13.7 | – | 20.7 | 24.3 | 36.2
306.94 K | – | 4.66 | 8.34 | 9.31 | 13.58 | 16.24 | 20.5 | 24 | 35.8
307.24 K | 3.77 | 4.63 | – | – | 13.46 | 16.09 | 20.3 | 23.8 | 35.4
307.55 K | 3.74 | 4.6 | 8.2 | 9.16 | 13.34 | 15.95 | 20.1 | 23.5 | 35
307.85 K | 3.72 | 4.56 | 8.13 | 9.08 | 13.23 | – | – | – | –
